Assay [1] addresses T1, Induced myeloid leukemia cell differentiation protein Mcl-1 (Homo sapiens, UniProt Q07820). As to the kind of experiment: Inhibition of FITC-Bak-BH3 binding to recombinant MBP-fused MCL1 (172 to 318 residues) (unknown origin) by TR-FRET assay.
Assay [2] addresses T1, Induced myeloid leukemia cell differentiation protein Mcl-1. Briefly: Inhibition of FITC-Bak-BH3 binding to recombinant MBP-fused MCL1 (172 to 318 residues) (unknown origin) in presence of 1% FBS by TR-FRET assay. A general note: Time-resolved FRET reads energy transfer from a long-lived donor to a nearby acceptor.

The values that follow come from ChEMBL document CHEMBL4033646, “Structure of a Myeloid cell leukemia-1 (Mcl-1) inhibitor bound to drug site 3 of Human Serum Albumin” (Bioorg Med Chem, 2017).

What is called Ki is the dissociation constant of the complex between target and ligand, obtained from inhibition or displacement.

T1 sequence (Q07820 whole entry, the tested form may be a part): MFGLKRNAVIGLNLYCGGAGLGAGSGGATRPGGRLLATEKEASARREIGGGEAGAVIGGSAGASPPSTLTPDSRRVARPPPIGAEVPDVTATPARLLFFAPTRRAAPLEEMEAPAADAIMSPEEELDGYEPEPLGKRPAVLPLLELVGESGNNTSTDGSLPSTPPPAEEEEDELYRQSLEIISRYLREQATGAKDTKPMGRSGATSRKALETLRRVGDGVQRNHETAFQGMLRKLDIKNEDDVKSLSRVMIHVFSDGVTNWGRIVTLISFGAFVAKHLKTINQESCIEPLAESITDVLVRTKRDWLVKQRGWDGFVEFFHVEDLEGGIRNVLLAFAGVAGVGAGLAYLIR

Consider `Cc1cc(OCCCc2c(C(=O)O)[nH]c3c(-c4c(COCCN(C)C)nn(C)c4C)cccc23)cc(C)c1Cl`, for which the Ki in assay [1] stood at 20 nM; in assay [2], 32 nM.
On the same counts, the results for `Cc1cc(OCCCc2c(C(=O)O)[nH]c3c(-c4c(C)nn(C)c4C)cccc23)cc(C)c1Cl` are 48 nM and 262 nM.
Taken in the same sequence, the figures for `Cc1cc(OCCCc2c(C(=O)O)[nH]c3c(-c4c(CN5CCCCC5)nn(C)c4C)cccc23)cc(C)c1Cl` were 22 nM and 73 nM.
